Test results published in patent US9822118B2, “Bicyclic heteroaryl urea, thiourea, guanidine and cyanoguanidine compounds as TrkA kinase inhibitors” (Array BioPharma Inc., priority 2012, dated 2017).

Biological target: T1, recombinant human TrkA (Homo sapiens, UniProt P04629)
T1 construct: 6HIS tagged cytoplasmic domain from Invitrogen, Catalog No. PV3144; purchased Invitrogen PV3144
Assay: TrkA LanthaScreen Eu Kinase Binding Assay
Conditions: averaged IC50; TR-FRET binding assay, 60 min at 22° C.; read-out: TrkA Enzyme IC50
Protocol: TrkA binding activity was determined in a TrkA LanthaScreen™ Eu Kinase Binding Assay. 5 nM His-tagged recombinant human TrkA (6HIS tagged cytoplasmic domain from Invitrogen, Catalog No. PV3144) was incubated with 4 nM Alexa-Fluor® Tracer 236 (Invitrogen Cat. No. PV5592), 2 nM biotinylated anti-His (Invitrogen Cat. No. PV6090), and 2 nM europium-labeled Streptavidin (Invitrogen Cat. No. PV5899), in buffer (25 mM MOPS, pH 7.5, 5 mM MgCl2, 0.005% Triton X-100). Three fold serial dilutions of compounds of the invention in DMSO were added to a final percentage of 2% DMSO. After 60-minute incubation at 22° C., the reaction was measured using the EnVision multimode plate reader (PerkinElmer) via TR-FRET dual wavelength detection at […]. The percent of control was calculated using a ratiometric emission factor. The IC50 values were determined by fitting a four parameter model to the percent of control data.
Table A provides averaged IC50 values for compounds of the invention when tested in the assay of Example A, where A represents an averaged IC50 value <100 nM; and B represents an averaged IC50 value from 100 to 1,000 nM.

T1 sequence (P04629 440-796 limits assumed): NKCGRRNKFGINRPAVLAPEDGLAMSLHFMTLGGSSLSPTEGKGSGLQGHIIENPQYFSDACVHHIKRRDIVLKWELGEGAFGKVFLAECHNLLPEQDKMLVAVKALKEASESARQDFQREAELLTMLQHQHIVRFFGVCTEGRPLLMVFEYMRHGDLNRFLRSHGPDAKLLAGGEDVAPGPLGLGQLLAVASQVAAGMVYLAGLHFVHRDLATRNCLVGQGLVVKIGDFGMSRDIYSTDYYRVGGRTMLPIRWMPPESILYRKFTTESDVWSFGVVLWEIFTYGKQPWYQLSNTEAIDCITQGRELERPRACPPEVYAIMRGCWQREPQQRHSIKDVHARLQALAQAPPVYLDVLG

IC50	SMILES
100 to 1000 nM	CCOc1nn(-c2ccccc2)c(NC(=O)Nc2c(-c3ccc(OC)nc3)nc3c(C)cccn23)c1C [Example 16, 1-(3-ethoxy-4-methyl-1-phenyl-1H-pyrazol-5-yl)-3-(2-(6-methoxypyridin-3-yl)-8-methylimidazo[1,2-a]pyridin-3-yl)urea]
< 100 nM	Cc1nn(-c2ccccc2)c(NC(=O)Nc2c(-c3ccccc3)nc3c(C)nccn23)c1C [Example 8, 1-(3,4-dimethyl-1-phenyl-1H-pyrazol-5-yl)-3-(8-methyl-2-phenylimidazo[1,2-a]pyrazin-3-yl)urea]
< 100 nM	COc1nn(-c2ccccc2)c(NC(=O)Nc2c(-c3ccccc3)nc3c(C(F)(F)F)cccn23)c1C [Example 22, 1-(3-methoxy-4-methyl-1-phenyl-1H-pyrazol-5-yl)-3-(2-phenyl-8-(trifluoromethyl)imidazo[1,2-a]pyridin-3-yl)urea]
100 to 1000 nM	COCc1nn(-c2ccccc2)c(NC(=O)Nc2c(-c3ccccc3)nc3c(C(F)(F)F)cccn23)c1C [Example 31, 1-(3-(methoxymethyl)-4-methyl-1-phenyl-1H-pyrazol-5-yl)-3-(2-phenyl-8-(trifluoromethyl)imidazo[1,2-a]pyridin-3-yl)urea]
100 to 1000 nM	CCOc1nn(-c2ccccc2)c(NC(=O)Nc2c(-c3ccccc3)nc3ccccn23)c1C [Example 5, 1-(3-ethoxy-4-methyl-1-phenyl-1H-pyrazol-5-yl)-3-(2-phenylimidazo[1,2-a]pyridin-3-yl)urea]
< 100 nM	COc1nn(-c2ccccc2)c(NC(=O)Nc2c(-c3ccccc3)nc3c(C)cccn23)c1C [Example 21, 1-(3-methoxy-4-methyl-1-phenyl-1H-pyrazol-5-yl)-3-(8-methyl-2-phenylimidazo[1,2-a]pyridin-3-yl)urea]
< 100 nM	CCOc1nn(-c2ccccc2)c(NC(=O)Nc2c(-c3ccccc3)nc3c(Cl)cccn23)c1C [Example 4, 1-(8-chloro-2-phenylimidazo[1,2-a]pyridin-3-yl)-3-(3-ethoxy-4-methyl-1-phenyl-1H-pyrazol-5-yl)urea]
100 to 1000 nM	Cc1c(OC[C@H](O)CO)nn(-c2ccccc2)c1NC(=O)Nc1c(-c2ccccc2)nc2c(C)cccn12 [Example 10, (R)-1-(3-(2,3-dihydroxypropoxy)-4-methyl-1-phenyl-1H-pyrazol-5-yl)-3-(8-methyl-2-phenylimidazo[1,2-a]pyridin-3-yl)urea]
100 to 1000 nM	CCOc1nn(-c2ccccc2)c(NC(=O)Nc2c(-c3ccccc3)nn3ccccc23)c1C [Example 39, 1-(3-ethoxy-4-methyl-1-phenyl-1H-pyrazol-5-yl)-3-(2-phenylpyrazolo[1,5-a]pyridin-3-yl)urea]
< 100 nM	Cc1c(OC[C@@H](O)CO)nn(-c2ccccc2)c1NC(=O)Nc1c(-c2ccccc2)nc2c(C(F)(F)F)cccn12 [Example 29, (S)-1-(3-(2,3-dihydroxypropoxy)-4-methyl-1-phenyl-1H-pyrazol-5-yl)-3-(2-phenyl-8-(trifluoromethyl)imidazo[1,2-a]pyridin-3-yl)urea]
< 100 nM	CCOc1nn(-c2ccccc2)c(NC(=O)Nc2c(-c3ccccc3)nc3c(Br)cccn23)c1C [Example 15, 1-(8-bromo-2-phenylimidazo[1,2-a]pyridin-3-yl)-3-(3-ethoxy-4-methyl-1-phenyl-1H-pyrazol-5-yl)urea]
< 100 nM	Cc1nccn2c(NC(=O)Nc3c4c(nn3-c3ccccc3)CCC4)c(-c3ccccc3)nc12 [Example 1, 1-(8-methyl-2-phenylimidazo[1,2-a]pyrazin-3-yl)-3-(2-phenyl-2,4,5,6-tetrahydrocyclopenta[c]pyrazol-3-yl)urea]
100 to 1000 nM	O=C(Nc1c2c(nn1-c1ccccc1)CCC2)Nc1c2ccccc2nn1-c1ccccc1 [Example 37, 1-(2-phenyl-2,4,5,6-tetrahydrocyclopenta[c]pyrazol-3-yl)-3-(2-phenyl-2H-indazol-3-yl)urea]
